Results on 6 compounds are retold here after paper PMC8955265, “Systematic Discovery of FBXW7-Binding Phosphodegrons Highlights Mitogen-Activated Protein Kinases as Important Regulators of Intracellular Protein Levels” (International Journal of Molecular Sciences, 2022).

For test [1], the system named is FBXW7-mediated protein degradation. Put plainly: Ratiometric DsRed/EGFP protein level assay of full-length proteins with kinase inhibitors. The test is classed as cell-based, HEK293T cells. The following applies: for ZMIZ1 level: full-length ZMIZ1, HEK293T + FBXW7, inhibitor 2 µM. How it is done:
(§1) HEK293T cells (purchased from ATCC, CRL-3216) were cultured in Dulbecco’s Modified Eagle’s Medium (DMEM, Gibco, Waltham, MA, USA) containing 10% FBS (Gibco, Cat# 10500064), 100 µg/mL Pen/strep (Sigma, P0781) and Amphotericin B (Thermo Fisher, 15290026) at 37 °C in an atmosphere of 5% CO2. Approximately 90,000 cells were plated in 24-well Greiner bio-one plates (#662-160). The next day cells were transfected with Lipofectamine 3000 reagent (L3000001, Invitrogen, Waltham, MA, USA) using the Opti-MEM reduced serum media (Gibco, 31985062). The transfection media was changed with complete DMEM after 4–6 h of transfection. Cells in a 24-well plate were transfected with 500 ng of plasmid DNA in total, for co-transfection each plasmid construct was used in 250 ng amount. For western blots, cells were washed in ice-cold PBS and harvested in SDS loading buffer and then subjected to SDS-PAGE. The samples were then transferred to nitrocellulose membrane. Primary antibodies were the following: Anti-V5 (Invitrogen; 1:5000 dilution), anti-FLAG (Sigma #F1804; 1:5000 dilution), anti-cMyc (#2276, Cell signaling, Danvers, MA, USA) 1:1000 dilution) and anti-tubulin (Sigma #T6199; 1:50,000 dilution). Secondary antibodies (IRDye® 800CW Goat anti-Mouse IgG, LiCOR #926-32210 and IRDye® 680CW Goat anti-Mouse IgG, LiCOR #926-68070; 1:5000 dilution) were used according to the recommendation of the manufacturer and blots were analyzed by Odyssey CLx imaging system (Li-Cor). Kinase inhibitors were used in 2 µM concentration added 6 h before protein level measurements: GSK3—CHR99021 (#S2924, Selleckchem, Munich, Germany), ERK1/2—SCH772984 (Selleckchem, #S7101), p38—SB202190 (Sigma-Aldrich, #S7067), and JNK—JNK-IN-8 (Selleckchem, #S4901). MG132 proteosomal inhibitor (Merck, #474790) was used in 10 µM concentration and cycloheximide (# 239763, Calbiochem, San Diego, CA, USA) was used in 100 µg/mL concentration. HEK293T cells were washed with 500 μL ice-cold PBS twice and gently collected using a pipette 48 h after transfection. The suspension was centrifuged at 500× g for 10 min at 4 °C. After centrifugation, the cell pellet was resuspended in 110 µL ice cold PBS and the fluorescence signal for EGFP (Excitation 485 nm; Emission 515 nm) and DsRed (Excitation 550 nm; Emission 580 nm) was measured in Corning 384-well microplate (#4514) using a plate reader (CytationTM 3, BioTek Instruments, Winooski, VT, USA).

The next test has as its system FBXW7. Put plainly: Ratiometric EGFP/DsRed protein degradation assay with degron probes. The test is classed as cell-based, human. From the text: In order to be able to test putative phosphodegron motifs, a ratiometric protein level monitoring method was adapted to monitor MAPK controlled FBXW7 mediated protein degradation. Briefly, intact DsRed and an EGFP-chimera were expressed in HEK293T cells in equal amounts from an expression plasmid, giving an EGFP/DsRed fluorescence ratio close to one under non-degrading conditions. EGFP was fused to a probe comprised of a putative degron sequence and a known MAPK binding docking motif. EGFP signal is expected to diminish faster than DsRed in cells with more FBXW7 if the probe responded to degradation.
We started out from an intentionally general consensus motif of FBXW7 degrons, inspired by the liberal [TS]P..[TS]P pattern defined for yeast Cdc4 substrates, and scanned the human disordered part of the proteome using SliMSearch4 (the disorder score cut-off was 0.4 and flank length was 5). In all, 22 motifs from this list were subjectively chosen and tested in the ratiometric degradation assay giving only 5 positives (see Supplementary Table S1). Based on the results of this first round, by taking information both from the identified positives and negatives, the consensus motif definition was narrowed to requiring a proline at P + 2, but motifs were allowed to have a phospho-mimicking residue (D or E) at P + 4 because it had been formerly reported that this second phosphorylatable residue may be replaced by aspartate or glutamate. […] In the third round, hydrophobic amino acids were more strictly required at positions −1/−2 and P − 1/2/3 positions were further narrowed and P + 4 position was relaxed based on the identified negatives, which gave a higher hit rate (4 out of 6). This third round gave functional motifs at a good rate, but the used motif definition was very restrictive compared to other known motifs. Finally, in the fourth round, we gave up using an optimal consensus and established the positional relaxation model. […] Hits on this final, most predictive list are presented in Supplementary Table S2. All entries were filtered for motif locations by UniProt annotations, discarding all enzyme-inaccessible (e.g., extracellular) instances. Motifs that had any overlapping PFAM domain indicated were manually assessed using the AlphaFold EBI website. Out of these, only motifs that were highly accessible and located outside of confidently predicted folded domains were kept. We also added kinase consensus compatibility to every motif and the number of experiments where phosphorylation could be detected from PhosphoSitePlus.
The chimera degron module was ordered from IDT as gene Block (gBlock). It consisted of a coiled coil dimerization motif (GCN4: EELLSKNYHLENEVARLKK) to increase sensitivity by allowing multivalent binding, a MAPK binding docking motif (AAKG2: KKNASQKRRSLRVHIPDL), and the CycECO degron motif. The motifs were separated by Gly-Ser-Asn linkers and the gBlock was designed so that the motifs could be easily changed by using unique sets of restriction endonucleases. The gBlock was sub-cloned into the Gateway pENTR4 entry plasmid (Thermo Fisher, Waltham, MA, USA) using restriction enzymes (SalI and NotI). The pENTR4-chimera and the destination plasmid (MSCV-CMV-DsRed-IRES-EGFP-DEST from Addgene; 41941), [28]) were subjected to gateway cloning using LR clonase II enzyme (Invitrogen) to obtain the first DsRed-EGFP-chimera DNA construct containing the cycECO degron. Oligonucleotides corresponding to different degron sequences and docking motifs were ligated into the DsRed-EGFP-chimera DNA construct. The list of all the oligonucleotides used for cloning is provided in Supplementary Table S3. pcDNA3-FLAG-FBXW7α was a kind gift from Michael Pagano (New York University). The FBXW7 arginine mutant (Arg mutant: R465C; R479Q; R505L) was created using two-step PCR and cloned into the pcDNA3-FLAG plasmid. […]

Test [2] deals with FBXW7-mediated protein degradation. The test is described as follows: Western blot of protein levels in FBXW7-transfected cells. The class given is cell-based, HEK293T cells. The protocol: as §1, with “concentration.” for “concentration. HEK293T cells were washed with 500 μL ice-cold PBS twice and gently collected using a pipette 48 h after transfection. The suspension was centrifuged at 500× g for 10 min at 4 °C. After centrifugation, the cell pellet was resuspended in 110 µL ice cold PBS and the fluorescence signal for EGFP (Excitation 485 nm; Emission 515 nm) and DsRed (Excitation 550 nm; Emission 580 nm) was measured in Corning 384-well microplate (#4514) using a plate reader (CytationTM 3, BioTek Instruments, Winooski, VT, USA).”
For orientation: Immunoblotting shows a protein as a band on a membrane.

The target of a further test is T1, Skp1-FBXW7 complex (Homo sapiens, UniProt P63208+Q969H0).
T1 construct: human FBXW7 (263-707) with an N-terminal hexa-histidine (His6) tag; His6 (N, cleaved yes); made in house; host or cells: E. coli Rosetta (DE3)
The test is described as follows: Fluorescence polarization competitive protein-peptide binding assay. The conditions noted are these: FP based quantitative in vitro binding assay; result in words. The protocol:
Truncated Skp1 (1-149) and human FBXW7 (263-707) with an N-terminal hexa-histidine (His6) tag were cloned into a bicistronic plasmid (pMG950) and were co-expressed in E. coli Rosetta (DE3) strain. The Skp1-FBXW7 complex was purified using affinity, anion exchange, and gel filtration chromatography. The DNA expression plasmid was transformed into E. coli Rosetta (DE3) strain and grown in LB until OD600 = 0.5, protein expression was induced with 100 µM isopropyl-β-d-1-thigalatopyaranoside (IPTG) overnight at 18 °C. The cell pellet was lysed, and the recombinant protein was purified using Ni-NTA agarose beads. Before further purification the His6-tag was removed by using the TEV protease and then the protein complex was further purified using anion exchange chromatography twice, first with a Resource Q and then with a Mono Q column (pH = 8). Finally, the complex was subjected to size-exclusion chromatography in 20 mM Tris, pH = 8, 150 mM NaCl, and 1 mM DTT using a Superdex200 10/300 column (GE Healthcare, Chicago, IL, USA). The eluted fractions were pooled together and were supplemented with 10% glycerol and 2 mM TCEP before concentration and storage.
Fluoresce polarization (FP) based protein–peptide binding affinity measurements were carried out using 50 nM carboxyfluorescein (CF) labeled CCNE peptide (CF-PSGLLpTPPQpSGKKQ) and data were fit to a direct or a competitive binding equation using OriginPro 2018 as described earlier. For the direct measurements the concentration of Skp1-FBXW7 complex was increased in a titration experiment and then the binding affinity (Ki) of the unlabeled peptide was determined by titrating the Skp1-FBXW7: labelled peptide complex sample, at a concentration corresponding to ~60–80% complex formation, with increasing amounts of unlabeled peptide. All the FP measurements were performed in 20 mM Tris (pH 8.0), 100 mM NaCl, 0.05% Brij35P, and 2 mM TCEP using a Cytation^TM 3 (BioTek Instruments) plate reader (384-well plates in 20 µL binding reaction volume). Peptides were chemically synthesized and were ordered from GenScript.
Background: Polarisation of emitted light reports the rotation of a fluorescent probe.

Where a SMILES comes first, the peptide text is derived from it. The star is where a group is joined. Cbz = O=C(OCc1ccccc1)*

T1 sequence (Q969H0 263-707): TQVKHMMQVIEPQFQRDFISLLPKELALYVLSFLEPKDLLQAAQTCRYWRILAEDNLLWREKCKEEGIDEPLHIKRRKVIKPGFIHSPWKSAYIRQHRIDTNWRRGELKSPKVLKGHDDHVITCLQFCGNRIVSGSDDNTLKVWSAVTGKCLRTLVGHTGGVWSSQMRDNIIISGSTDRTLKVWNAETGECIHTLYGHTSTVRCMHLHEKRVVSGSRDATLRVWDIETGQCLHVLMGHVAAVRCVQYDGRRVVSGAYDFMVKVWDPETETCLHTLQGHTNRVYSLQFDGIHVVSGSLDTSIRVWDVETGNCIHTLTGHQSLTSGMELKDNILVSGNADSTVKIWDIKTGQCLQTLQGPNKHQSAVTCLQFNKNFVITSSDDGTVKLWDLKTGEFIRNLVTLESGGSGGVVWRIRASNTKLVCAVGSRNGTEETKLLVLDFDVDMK
T1 sequence (P63208 1-149 partner limits assumed): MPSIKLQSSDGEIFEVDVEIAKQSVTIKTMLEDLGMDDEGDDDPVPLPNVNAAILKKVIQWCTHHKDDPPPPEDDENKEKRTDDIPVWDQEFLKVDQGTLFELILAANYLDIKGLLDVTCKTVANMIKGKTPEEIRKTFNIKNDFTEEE

Regarding `O=C(Nc1ccc2[nH]nc(-c3ccncc3)c2c1)[C@@H]1CCN(CC(=O)N2CCN(c3ccc(-c4ncccn4)cc3)CC2)C1` [SCH772984], the ZMIZ1 level result in test [1] (6 h) was “affected”.
For the compound `CC(C)C[C@@H](C=O)NC(=O)[C@H](CC(C)C)NC(=O)[C@H](CC(C)C)NC(=O)OCc1ccccc1` [MG132] (Cbz-Leu-Leu-Leu-aldehyde), the CycEco-EGFP probe degradation result in the test with FBXW7 (HEK293T + FBXW7, MG132, EGFP/DsRed ratio) was “blocked”. In addition, the “protein level of the CycECO-V5 probe” value in test [2] (HEK293T transfected with FBXW7 plasmid, MG132 10 µM, anti-V5 western blot) is “counteracted the effect of FBXW7 expression”. Moreover, the “protein levels of full-length constructs in the presence of FBXW7” value in test [2] (KLF4, ETV5, ARID4B, CDT1, ZMIZ1, JAZF1 V5-tagged constructs, HEK293T, MG132 10 µM, western blot) is reported as “counteracted the effect of FBXW7”.
Take “LGPPPGLLTPPVATELSQN [CCAR2, synthetic peptide of the CCAR2 motif, P + 4 nonphospho class]”: the “binding affinity to purified FBXW7 in vitro” value at Skp1-FBXW7 complex was “low micromolar”. For the same compound, the Outcome entry in the test on FBXW7 (putative degron motif in EGFP-fused probe with AAKG2 MAPK docking motif, HEK293T, 48 h after transfection, EGFP/DsRed ratio with and without FBXW7 plasmid, search cycles 1-4) is given as “Positive (tested positive, where +FBXW7/control protein level ratio was lower than 1)”.
As to `Cc1cnc(-c2cnc(NCCNc3ccc(C#N)cn3)nc2-c2ccc(Cl)cc2Cl)[nH]1` [CHR99021], the “effect on FBXW7-mediated degradation of full-length constructs” value in test [1] (HEK293T, inhibitor 2 µM added 6 h before DsRed/EGFP measurement) was “no effect”.
On to `Cc1cc(NC(=O)c2cccc(NC(=O)/C=C/CN(C)C)c2)ccc1Nc1nccc(-c2cccnc2)n1` [JNK-IN-8], for which, in test [1] (full-length ARID4B, HEK293T + FBXW7, inhibitor 2 µM, 6 h), the “effect on ARID4B level” value was “significant effect”. In test [1] (6 h), the ZMIZ1 level entry is “affected”.
In the case of `Oc1ccc(-c2nc(-c3ccncc3)c(-c3ccc(F)cc3)[nH]2)cc1` [SB202190], in test [1] (full-length JAZF1, HEK293T + FBXW7, inhibitor 2 µM, 6 h), the “degradation of JAZF1” value is listed as “lower”. The ZMIZ1 level result in test [1] (6 h) is listed as “affected”. The “FBXW7-mediated degradation of the JAZF1-SUZ12 fusion construct” value in test [2] (HEK293T co-transfected with Fusion WT and FBXW7, inhibitor 2 µM, anti-Myc western blot) is “counteracted”.
